# Tests used:
# [1] = test system: PAF-induced platelet aggregation, rabbit platelets; assay: Inhibitory action on PAF-induced platelet aggregation (platelet-rich plasma); type: cell-based, New Zealand male rabbits; conditions: Oryctolagus cuniculus, PAF 5×10^-9 M, 37° C., turbidimetry, rabbit PRP
# Experimental: Blood was collected from the hearts of conscious New Zealand male rabbits weighing 2 to 3 kg using citric acid as an anticoagulant (one volume part of 3% citric acid relative to 9 volume parts of the whole blood). A platelet-rich plasma(PRP) was prepared by centrifugation at 1000 rpm for 10 minutes. The remaining blood after collecting the PRP was subjected to a centrifuge at 3000 rpm for 10 minutes to obtain platelet poor plasma(PPP). PRP was diluted with PPP to adjust the number of platelets to about 3×10^5 /μl. Solution of test compound (30 μl) was added to the PRP(270 μl), and after incubation for 2 minutes at 37° C., 30 μl aliquot of PAF(5×10^-9 M) was added. Platelet aggregation was then examined by means of turbidimetry [Born, Nature, 194, 927(1962)] with dual channel aggregometer (Chrono-Log. Corp., Havertown, Pa.). As the control, physiological saline without test sample was used. The platelet aggregation inhibiting activities of the test sample are expressed as IC50, that is the concentration of the compound at which 50% of the aggregation is inhibited.
# [2] = test system: PAF-induced [^14 C]serotonin release, rabbit platelets; assay: Inhibitory action on PAF-induced [14C]-serotonin release from rabbit platelets; type: cell-based, New Zealand white male rabbits; conditions: Oryctolagus cuniculus, Platelet, PAF 1×10^-9 M; for inhibition at 0.05 µM: test compound 5 × 10^-8 M; for inhibition at 0.005 µM: test compound 5 × 10^-9 M
# Experimental: The following pharmacological test examples explain the effects of the present invention in a more concrete manner.
# Inhibitory action on PAF-induced [^14 ]-serotonin release
# Blood was collected from the hearts of conscious New Zealand white male rabbits weighing 2 to 3 kg. The blood was immediately subjected to a centrifuge at 1400 rpm for 10 minutes to obtain platelet rich plasma(PRP).PRP was incubated with a trace amount of [^14 C]-serotonin for 20 minutes at 22° C. Prelabelled platelets were prepared by centrifugation at 3500 rpm for 10 minutes. The test compound was added to 80 μl of [^14 C]serotonin-labeled platelets in plastic test tubes, and the mixture was incubated for 2 minutes. PAF (1×10 ^-9 M) was then added to the reaction mixture and incubated for additional 2 minutes at which time 10 μl of cold formaldehyde was added to stop the reactions. The tubes were immediately cooled to 4° C. and centrifuged at 12000 rpm for 2 minutes. The supernatants (80 μl) were assayed for percentage of [^14 C]serotonin release by the conventional methods of measuring ^14 C counts.
# [3] = biological target: T1, PAF receptor (Oryctolagus cuniculus, UniProt G1TEI7); assay: PAF Receptor Binding Assay ([3H]C18-PAF, rabbit platelet membranes)
# T1 construct: Platelet membranes were prepared by centrifugation and washing; tissue Pel-Freez (Rogers, AR), supplier of the citrated whole rabbit blood; host or cells: rabbit platelet membranes
# Experimental: PAF Receptor Binding Assay Citrated whole rabbit blood was obtained from Pel-Freez(Rogers, AR). Rabbit platelets were prepared by centrifugation and washing. The platelets were lysed by freeze-thawing and sonification; Platelet membranes were prepared by centrifugation and washing. Final membrane preparation were stored frozen in 10 mM Tris/5 mM MgCl2 /2 mM EDTA (TME buffer, pH 7.0) with 0.25M sucrose added for membrane stabilization. […] The final volume of the assay was 1001 μl. The assay was conducted in Millititer-GV™(Millipore Corp.) filtration plates; incubation time was for 60 minutes at room temperature (22°-23° C.). […] The filters were dried and removed. The bound radioactivity was quantiated with a Berthold TLC-Linear Analyzer model LB2842. […] Experiments were repeated at least once. […] Ki values of inhibitory binding constants were calculated according to the methods of the literature[Cheng et al., Biochem.
# T1 sequence (G1TEI7 1-342): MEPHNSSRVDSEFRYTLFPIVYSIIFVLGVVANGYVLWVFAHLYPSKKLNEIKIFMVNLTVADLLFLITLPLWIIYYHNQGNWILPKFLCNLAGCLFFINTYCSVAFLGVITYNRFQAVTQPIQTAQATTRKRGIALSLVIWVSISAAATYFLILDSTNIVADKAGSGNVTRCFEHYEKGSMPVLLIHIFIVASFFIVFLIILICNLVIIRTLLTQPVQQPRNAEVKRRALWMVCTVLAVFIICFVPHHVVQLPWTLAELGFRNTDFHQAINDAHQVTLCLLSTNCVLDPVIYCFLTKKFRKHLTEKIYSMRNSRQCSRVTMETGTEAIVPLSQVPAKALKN
smiles,measurement,setting,value
"CCCCCCCCCCCCCCCCOC[C@H]1C[C@H](COC(=O)N(Cc2cccc[n+]2CC)C(=O)c2ccccc2OC)S1 (relative stereo) [Example 33, trans-2-[[N-(2-Methoxy)benzoyl-N-[[[4-[(hexadecyloxy)methyl]-2-thietanyl]methoxy]carbonyl]amino]methyl]-1-ethyl-pyridinium chloride]",IC50,[1],19 nM
"CCCCCCCCCCCCCCCCCCNC(=O)OCC1(COC(=O)CCCCC[n+]2ccsc2)COC1 [Example 13, 3-[5-[[[3-[[(Octadecylcarbamoyl)oxy]methyl]-3-oxetanyl]methoxy]carbonyl]pentyl]thiazolium bromide]",inhibition at 0.05 µM,[2],85%
"CCCCCCCCCCCCCCCCOC[C@H]1C[C@@H](COC(=O)N(Cc2cccc[n+]2CC)C(C)=O)O1 (relative stereo) [Example 1, cis-2-[[N-Acetyl-N-[[[2-[(hexadecyloxy)methyl]-4-oxetanyl]methoxy]carbonyl]amino]methyl]-1-ethyl-pyridinium iodide]",inhibition at 0.2 µM,[2]; test compound 2 × 10^-7 M,90%
"CCCCCCCCCCCCCCCCCCNC(=O)OC[C@@H]1C[C@H](COC(=O)N(Cc2cccc[n+]2CC)C(C)=O)O1 (relative stereo) [Example 3, cis-2-[[N-Acetyl-N-[[[4-[[(octadecylcarbamoyl)oxy]methyl]-2-oxetanyl]methoxy]carbonyl]amino]methyl]-1-ethyl-pyridinium iodide]",inhibition at 0.05 µM,[2],85%
"CCCCCCCCCCCCCCCCCCNC(=O)OC[C@H]1C[C@H](COC(=O)N(Cc2cccc[n+]2CC)C(=O)c2ccccc2OC)S1 (relative stereo) [Example 30, trans-2-[[N-(2-Methoxy)benzoyl-N-[[[4-[[(octadecylcarbamoyl)oxy]ethyl]-2-thietanyl]methoxy]carbonyl]amino]-1-ethyl-pyridinium chloride]",Ki,[3],34 nM
"CCCCCCCCCCCCCCCCCCNC(=O)OCC1(COC(=O)N(Cc2cccc[n+]2CC)C(C)=O)COC1 [Example 6, 2-[[-Acetyl-N-[[[3-[[(octadecylcarbamoyl)oxy]methyl]-3-oxetanyl]methoxy]carbonyl]amino]methyl]-1-ethyl-pyridinium iodide]",inhibition at 0.005 µM,[2],75%
"CCCCCCCCCCCCCCCCCCNC(=O)OC[C@H]1C[C@H](COC(=O)N(Cc2cccc[n+]2CC)C(C)=O)O1 (relative stereo) [Example 5, trans-2-[[N-Acetyl-N-[[[4-[[(octadecylcarbamoyl)oxy]methyl]-2-oxetanyl]methoxy]carbonyl]amino]methyl]-1-ethyl-pyridinium iodide]",inhibition at 0.05 µM,[2],95%
same,inhibition at 0.005 µM,[2],70%
"CCCCCCCCCCCCCCCCCCNC(=O)OC[C@H]1C[C@H](COC(=O)N(Cc2cccc[n+]2CC)C(C)=O)N1C(=O)c1ccccc1 (relative stereo) [Example 44, 2-[[N-Acetyl-N-[[[4-[[(octadecylcarbamoyl)oxy]methyl]-1-benzoylazetidine-2-yl]methoxy]carbonyl]amino]methyl]-1-ethyl-pyridinium chloride]",Ki,[3],104 nM

# From patent US5700817A, “Cyclic lipid derivatives as potent PAF antagonists” (Pohang Iron & Steel Co., Ltd., priority 1993, dated 1997)
